# Where “and” joins values, the source holds several entries; their conditions need not be identical. Equal entries are not always repeated. Where two headings read alike, the source gives them in different places.
# Key:
# CDK1 (p34 cdc2)/cyclin B = test: CDK inhibition assay (histone H1 kinase), CDK1; assay type: biochemical, starfish (Marthasterias glacialis); details: for IC50: CDK1; for IC50 / effect of side chain at N9 or N7, or halo at C2, on activity: Table 1; for % inhibition CDK1: at 100 μM; for effect of side chain at N9 or N7, or halo at C2, on activity: in words
# Method: (§1) By way of example, however, a typical protocol is summarised below.
# Histone H1 (type III-S (Sigma) 4° C.) 5 mg/ml in buffer C.
# [^32 P]ATP […]: Make up using (multiples of) the following proportions:
# DMSO cannot exceed 1% in the assay mixture. Inhibitors are added at 1/10 final assay volume and 10×final strength. DMSO stocks must therefore be diluted to 10×final desired concentration in ≤10% DMSO, ≥90% buffer C.
# Start reaction in each tube at 30 second intervals by adding
# […] [^32 P]ATP vortexing and placing in rack in waterbath at 30° C.
# Terminate reaction after 10 min at 30 second intervals in tubes in same order by removing
# […] reaction mix and spotting onto appropriately labelled filter, allowing to dry for 20-30 seconds and transferring to stirring 1% phosphoric acid.
# Blank incubation is performed as above but without histone (add […] buffer C instead) Washing blank is […] ATP added directly to filter.
# CDK4 = CDK4 (Homo sapiens, UniProt P11802); test: CDK inhibition assay, CDK4; assay type: biochemical; details: CDK4; Table 1; read-out: IC50 CDK4
# Sequence of CDK4 (P11802 whole entry, species assumed): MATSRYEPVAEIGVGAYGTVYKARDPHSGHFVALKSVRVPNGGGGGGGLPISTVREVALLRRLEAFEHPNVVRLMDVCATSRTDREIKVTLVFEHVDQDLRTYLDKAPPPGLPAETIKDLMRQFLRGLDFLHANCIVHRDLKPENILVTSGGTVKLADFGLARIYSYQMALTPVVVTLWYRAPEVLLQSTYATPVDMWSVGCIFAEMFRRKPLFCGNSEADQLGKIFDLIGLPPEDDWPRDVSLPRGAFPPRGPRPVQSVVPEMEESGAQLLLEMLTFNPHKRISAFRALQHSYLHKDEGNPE
# Sequence of CDK4 (P24385 whole entry partner, species assumed): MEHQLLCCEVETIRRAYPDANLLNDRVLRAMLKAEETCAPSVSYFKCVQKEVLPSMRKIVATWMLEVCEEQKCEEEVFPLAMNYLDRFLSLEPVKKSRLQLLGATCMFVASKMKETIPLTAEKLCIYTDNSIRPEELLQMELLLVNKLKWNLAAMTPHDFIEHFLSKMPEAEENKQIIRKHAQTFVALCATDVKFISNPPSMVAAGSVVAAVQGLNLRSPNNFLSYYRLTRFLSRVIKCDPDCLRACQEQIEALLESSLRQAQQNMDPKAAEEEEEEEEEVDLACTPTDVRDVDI
# Text: (§2) Apart from reference compounds, the compounds listed are accompanied by an NU reference or identification code number.
# as §1
# CDK2 = CDK2 (Homo sapiens, UniProt P24941); test: CDK inhibition assay, CDK2; assay type: biochemical; details: for IC50: CDK2, Table 1, read-out: IC50 CDK2
# Text: as §2, §1
# [1] = read-out: % inhibition CDK2, at 100 μM
# [2] = at 100 μM, read-out: % inhibition CDK2
Structure (SMILES),IC50 (CDK1 (p34 cdc2)/cyclin B) [µM],inhibition at 100 µM (CDK2; [1]) [%],% inhibition CDK1 (CDK1 (p34 cdc2)/cyclin B) [%],further results
"CC(C)C(=O)COc1nc(N)nc2nc[nH]c12 [NU2056, O^6-(3-Methyl-2-oxobutyl)guanine]",22,33 ± 2,–,IC50 (CDK4): 122 µM
"Nc1nc(OCCC2CCCCC2)c2[nH]cnc2n1 [NU6023, 2-amino-6-cyclohexylethyloxypurine]",–,58 ± 6,68 ± 6,IC50 (CDK4): 69 µM; IC50 (CDK2): 47.6 µM
"Nc1nc(N)c(N)c(OCC2CCCCC2)n1 [NU6035, 2,5,6-triamino-4(cyclohexylmethoxy)-pyrimidine]",–,54 ± 8,40 ± 4,–
"Nc1nc(OCc2ccccc2)c2[nH]c(=O)[nH]c2n1 [NU6043, 2-Amino-6-benzyl-8-oxoguanine]",–,–,13 ± 9,inhibition at 100 µM (CDK2; [2]): 8 ± 13%
"Nc1nc(OCC(O)CO)c2nc[nH]c2n1 (stereo not drawn) [NU2040, 2-amino-6-(2,3-dihydroxy) propoxypurine]",> 100,–,–,–
"CCOC(C)(COc1nc(N)nc2[nH]cnc12)OCC [NU2032, 2-amino-6-(2,2-diethoxy) propoxypurine]",> 100,–,–,–
"CC1(C)OCC(COc2nc(N)nc3[nH]cnc23)O1 (stereo not drawn) [NU6021, O^6-(2,2-Dimethyl-1,3-dioxolane-4-methoxy)guanine]",–,35 ± 6,36 ± 9,–
"Nc1nc(OCC2CCCO2)c2nc[nH]c2n1 (stereo not drawn) [NU6013, 2-amino-6-(2-tetrahydro-furanyl)-methyloxypurine]",–,39 ± 5,48 ± 7,IC50 (CDK4): 261 µM; IC50 (CDK2): > 500 µM
"CCC(COc1nc(N)nc2[nH]cnc12)(OC)OC [NU2050, 2-amino-6-(2,2-dimethoxy) butyloxypurine]",> 100,–,–,–
"Nc1nc(N)c(N)c(OCc2ccccc2)n1 [NU6040, 2,5,6-triamino-4-(benzylmethoxy) pyrimidine]",–,–,–,inhibition at 100 µM (CDK2; [2]): 6 ± 10%
"c1nc(OCC2CCCCO2)c2[nH]cnc2n1 (stereo not drawn) [NU2014, 6-(2-tetrahydropyranyl-methyloxy)purine]",> 100,–,–,–
"c1nc(OCC2CCCCC2)c2[nH]cnc2n1 [NU2017, 6-cyclohexylmethoxypurine]",16,61 ± 2,–,IC50 (CDK2): 15.5 µM
"Nc1nc(OCC2CCCCO2)c2nc[nH]c2n1 (stereo not drawn) [NU6019, 2-amino-6-(2-tetrahydropyranyl)-methyloxypurine]",–,44 ± 2,51 ± 4,IC50 (CDK4): > 100 µM
"COc1nc(N)nc2nc[nH]c12 [NU2004, 2-amino-6-methoxypurine]",200,–,–,–
"Nc1nc(OCC2CC=CCC2)c2nc[nH]c2n1 (stereo not drawn) [NU2073, O^6-(3'-Cyclohexenyl)methylguanine]",3.2,87 ± 1,–,IC50 (CDK4): 53 µM; IC50 (CDK2): 98 µM and 18.8 µM
"CC1(C)OC[C@@H](COc2nc(N)nc3[nH]cnc23)O1 [NU6024, 2-amino-6-[(R)-2',2'-dimethyl-1',3'-dioxolane-5'-methyl]oxypurine]",–,–,50 ± 1,inhibition at 100 µM (CDK2; [2]): 38 ± 3%
"Nc1nc(OCc2cccnc2)c2nc[nH]c2n1 [NU6029, 2-Amino-6-(3'-pyridyl)methyloxypurine]",–,–,56 ± 4,inhibition at 100 µM (CDK2; [2]): 43 ± 4%
"CC(=O)COc1nc(N)nc2[nH]cnc12 [NU2035, O^6-(2-Oxopropyl)guanine]",100,–,–,–
"Nc1nc(OC[C@H]2CCC(=O)N2)c2nc[nH]c2n1 [NU6032, 2-amino-6-[(R)-2'-oxopyrrolidin-5'-methyl]oxypurine]",–,37 ± 2,54 ± 2,IC50 (CDK4): > 1000 µM; IC50 (CDK2): 123 µM

# More lines, main results first:
IC50 (CDK1 (p34 cdc2)/cyclin B) [µM],Structure (SMILES),inhibition at 100 µM (CDK2; [1]) [%],% inhibition CDK1 (CDK1 (p34 cdc2)/cyclin B) [%],further results
100,"Nc1nc(OCC(=O)c2ccccc2)c2nc[nH]c2n1 [NU2033, O^6-(2-Oxo-2-phenylethyl)guanine]",–,–,–
20,"C=C(CC)COc1nc(N)nc2[nH]cnc12 [NU2054, O^6-(2-Ethylallyl)guanine]",–,–,–
12,"C=CCCCCOc1nc(N)nc2[nH]cnc12 [NU2061, O^6-(5'-Hexenyl)guanine]",–,–,–
> 1000,"C=CCOc1nc(N)nc2c1ncn2Cc1ccccc1 [NU2038, O^6 -Allyl-N^9 -benzylguanine]",–,–,"effect of side chain at N9 or N7, or halo at C2, on activity (CDK1 (p34 cdc2)/cyclin B): activity drastically diminishes"
32,"C=C(C)COc1nc(N)nc2[nH]cnc12 [NU2034, O^6-(2-Methylallyl)guanine]",–,–,–
130,"c1ccc(CCOc2ncnc3nc[nH]c23)cc1 [NU2023, 6-(2-Phenylethyloxy)purine]",–,–,–
400,"C=CCOc1nc(Cl)nc2nc[nH]c12 [NU2051, 6-allyloxy-2-chloropurine]",–,–,"effect of side chain at N9 or N7, or halo at C2, on activity (CDK1 (p34 cdc2)/cyclin B): activity drastically diminishes"
22,"C=CCOc1nc(N(C)C)nc2nc[nH]c12 [NU2048, 2-(N,N-dimethyl)amino-6-allyloxypurine]",–,–,–
50,"C=CCOc1nc(N)nc2nc[nH]c12 [NU2028, 2-amino-6-allyloxypurine]",–,–,IC50 (CDK4): > 100 µM

# Source: patent publication US6303618A, “Cyclin dependent kinase inhibiting purine derivatives” (priority 1997, dated 2001)
